# Measured values published in patent publication US8685924B2, “Preventives/remedies for stress urinary incontinence and method of screening the same” (Takeda Pharmaceutical Company Limited, priority 2004, dated 2014).
# What was measured:
# Assay type in all cases: in vivo, rat
# [1] = tested on: urethane-anesthetized female rats; assay: Leak point pressure by direct compressing of the bladder (Example 4); details: for leak point pressure after drug administration / leak point pressure increase / leak point pressure before drug administration: i.v., mean ± SEM; for leak point pressure after drug administration: 20 min later; for leak point pressure before drug administration: baseline
# Description: (§1) SD female rats (body weight 180-350 g) were anesthetized with urethane (Wako Pure Chemical Industries, Ltd.), and halothane (Takeda Pharmaceutical Company Limited) anesthesia was added when necessary during operation.
# (§2) The spinal cord was transected at T8-9 level to eliminate the reflex voiding. The lower abdomen was incised in the median line, a catheter for intravesical pressure measurement (PE-90, Clay Adams) was inserted into the bladder and secured with a ligature, and the intravesical pressure was measured via a pressure transducer. Urine was emptized in advance by bilaterally pressing the bladder with two swabs, and a 0.1% Evans blue (Merck) solution (0.4 mL) was injected into the bladder. The bladder was gradually compressed bilaterally with two swabs, and the intravesical pressure upon saline leakage from the urethral orifice was measured and defined as a leak point pressure. The measurement of the leak point pressure was repeated, and the average value of the final five stable measures was taken as the value before drug administration. Thereafter, the drug was intravenously administered, the leak point pressure was measured again 20 min later, and the value after the drug administration was determined. DOI, mCPP and eltoprazine were dissolved in saline, and other drugs were dissolved in DMA/PEG400 (1:1), and intravenously administered at 1 ml/kg and 0.5 mg/kg, respectively. Depending on the experiment, RS-102221 or SB221284 (showing serotonin 5-HT2C receptor antagonist activity) was administered, 5 min later, WAY-161503 or WAY-163909 was administered, leak point pressure was measured 10 min later, and a competitive assay with the action of WAY-161503 or WAY-163909 was performed. RS-102221 and SB221284 were both dissolved in DMA/PEG400 (1:1), and intravenously administered at 0.5 ml/kg.
# [2] = tested on: urethane-anesthetized female rats; assay: Leak point pressure by abdominal wall-electrically stimulating method, serotonin 5-HT receptor agonists (Example 3); details: for leak point pressure after drug administration / leak point pressure increase / leak point pressure before drug administration: i.v., mean ± SEM; for leak point pressure before drug administration: baseline
# Description: (§3) SD female rats (body weight 180-350 g) were anesthetized with urethane (Wako Pure Chemical Industries, Ltd.), and the spinal cord was transected at T8-9 level to eliminate the reflex voiding. In addition, the nerve to the iliococcygeus muscle/pubococcygeus muscle on the one side was transected. During operation, halothane (Takeda Pharmaceutical Company Limited) anesthesia was added when necessary. A catheter (PE-90, Clay Adams) was inserted into the bladder and secured with a ligature, and the incised part of each of the abdominal muscle and skin was closed with sutures. The abdominal skin near the diaphragm was incised at two left and right positions to newly expose the abdominal muscle. An Evans Blue dye (Merck) solution was injected into the bladder, and the bladder volume was adjusted to 0.2-0.3 ml. The bladder catheter was connected to a pressure transducer, and the signals of the transducer were sent to a computer via an amplifier (blood pressure amplification unit AP-641G; NIHON KOHDEN) and an analog-to-digital converter (BIOPAC; MP100), and recorded on a hard disc. The data were analyzed on a computer using software (BIOPAC; AcqKnowledge). The exposed abdominal muscle was electrostimulated using an electrostimulator (SEN-3301; NIHON KODEN) and an isolator (SS-202J; NIHON KODEN), and the presence or absence of incontinence from the meatus urethra was observed. The electrostimulation was applied at a voltage of 2.5-50 V, duration of 0.5 milisec, and frequency 50 Hz for 1 sec, thereby gradually increasing the intravesical pressure. The peak intravesical pressure during stimulation of the abdominal wall was measured and, of the trials with observed incontinence, the lowest peak intravesical pressure was defined as the leak point pressure. Serotonin 5-HT receptor agonist, WAY-161503 (5-HT2C receptor agonist), WAY-163909 (5-HT2C receptor agonist), DOI (5-HT2A/2B/2C receptor agonist), mCPP (5-HT2B/2C receptor partial agonist), eltoprazine (5-HT1A/1B/2C receptor partial agonist), 8-OH-DPAT (5-HT1A receptor agonist), sumatryptan (5-HT1B/1D receptor agonist) and BW723C86 (5-HT2B receptor agonist) were intravenously administered, and the leak point pressure was compared before and after the administration. DOI, mCPP and eltoprazine were dissolved in saline, and other drugs were dissolved in DMA/PEG400 (1:1), and they were intravenously administered at 1 ml/kg and 0.5 mg/kg, respectively. Depending on the experiment, RS-102221 (serotonin 5-HT2C receptor antagonist) or SB221284 (serotonin 5-HT2B/2C receptor antagonist) was intravenously administered 5 min before WAY-161503 or WAY-163909 administration, and an antagonistic effect against the WAY-161503 or WAY-163909-induced increment of the leak point pressure was examined. RS-102221 and SB221284 were both dissolved in DMA/PEG400 (1:1) and intravenously administered at 0.5 ml/kg.
# [3] = tested on: urethane-anesthetized female rats; assay: Antagonism of the leak point pressure increase by WAY-161503 / WAY-163909, abdominal wall-electrically stimulating method (Example 3); details: agonist 0.3 mg/kg, i.v., antagonist: solvent, mean ± SEM
# Description: as §3
# [4] = tested on: urethane-anesthetized female rats; assay: Antagonism of the leak point pressure increase by WAY-161503 / WAY-163909, direct bladder compression method (Example 4); details: agonist 0.3 mg/kg, i.v., antagonist: solvent, mean ± SEM
# Description: as §1, §2
# [5] = tested on: urethane-anesthetized female rats; assay: Leak point pressure by intravesical pressure-clamp method (Example 6); details: for leak point pressure after drug administration / leak point pressure before drug administration: i.v., mean ± SEM; for leak point pressure after drug administration: 10 min later; for leak point pressure before drug administration: baseline
# Description: SD female rats (body weight 180-350 g) were anesthetized with urethane (Wako Pure Chemical Industries, Ltd.), and the spinal cord was transected at T8-9 level to eliminate the reflex voiding.
# Halothane (Takeda Pharmaceutical Company Limited) anesthesia was added when necessary during operation. After laparotomy, the bladder neck was tied with a suture thread and then a catheter (PE-90, Clay Adams) was inserted into the bladder and secured with a ligature. The other end of the bladder catheter was connected to a pressure transducer and saline storage reservoir (60 ml syringe) via a three-way cock.
# Changes in the intravesical pressure measured by a transducer were input in a computer via an amplifier (blood pressure amplification unit AP-641G; NIHON KODEN) and an analog-to-digital cinverter (MP-100; biopack) and recorded on a hard disc. The intravesical pressure was raised for 90 sec by setting the saline storage reservoir at a given height, and the presence or absence of saline leakage from the urethral orifice was observed. The intravesical pressure was raised every 2.5 cmH2O and, after 90 sec observation period, the intravesical pressure was once returned to 0 cmH2O, after which the next step was performed. The intravesical pressure at which the saline leakage from the urethral orifice was observed was taken as the leak point pressure. The measurement of the leak point pressure was repeated and the average of the final three measures was taken as the value before the drug administration. The drug was intravenously administered, and the leak point pressure was measured again 10 min later. The drug was dissolved in DMA-PEG400 (1:1), and administered at 0.5 ml/kg.
# [6] = tested on: urethane-anesthetized female rats; assay: Leak point pressure by abdominal wall electrostimulation, rats with nerve to iliococcygeus/pubococcygeus muscle transected on one side (Example 2); details: for leak point pressure after drug administration / leak point pressure increase / leak point pressure before drug administration: i.v., mean ± SEM; for leak point pressure before drug administration: baseline
# Description: SD female rats (body weight 180-350 g) were anesthetized with urethane (Wako Pure Chemical Industries, Ltd.), and the spinal cord was cut at T8-9 level to eliminate the reflex voiding. In addition, the nerve to the iliococcygeus muscle/pubococcygeus muscle on the one side was transected. During operation, halothane (Takeda Pharmaceutical Company Limited) anesthesia was added when necessary. A catheter (PE-90, Clay Adams) was inserted into the bladder and secured with a ligature, and the incised part of each of the abdominal muscle and skin was closed with sutures. The abdominal skin near the diaphragm was incised at two left and right positions to newly expose the abdominal muscle. An Evans Blue dye (Merck) solution was injected into the bladder, and the bladder volume was adjusted to 0.2-0.3 ml. The bladder catheter was connected to a pressure transducer, and the signals of the transducer were sent to a computer via an amplifier (blood pressure amplification unit AP-641G; NIHON KOHDEN) and an analog-to-digital converter (BIOPAC; MP100), and recorded on a hard disc. The data were analyzed on a computer using software (BIOPAC; AcqKnowledge). The exposed abdominal muscle was electrostimulated using an electrostimulator (SEN-3301; NIHON KODEN) and an isolator (SS-202J; NIHON KODEN), and the presence or absence of incontinence from the urethral orifice was observed. The electrostimulation was applied at a voltage of 3-50 V, duration of 0.05-0.5 milisec, and frequency 50 Hz for 1 sec, thereby gradually increasing the intravesical pressure. The peak intravesical pressure during stimulation of the abdominal wall was measured and, of the trials with observed incontinence, the lowest peak intravesical pressure was defined as the leak point pressure. The leak point pressure was compared before and after the duloxetine and midodrine administration. Duloxetine was dissolved in […] (DMA)/polyethylene glycol 400 (PEG400) (1:1), and intravenously administered at 0.5 ml/kg. Midodrine (hydrochloride, Sigma) was dissolved in saline and intravenously administered at 1 ml/kg.
compound,measurement,setting,value
c1cc2c3c(c1)[C@H]1CCC[C@H]1N3CCNC2 [WAY-163909],leak point pressure after drug administration,[1]; 0.03 mg/kg,73.3 ± 3.9 cmH2O
same,leak point pressure increase,[1]; 0.03 mg/kg,6.6 ± 2.2 cmH2O
same,leak point pressure after drug administration,[1]; 0.1 mg/kg,76.0 ± 2.7 cmH2O
same,leak point pressure increase,[1]; 0.1 mg/kg,11.8 ± 2.0 cmH2O
same,leak point pressure after drug administration,[1]; 0.3 mg/kg,69.9 ± 3.5 cmH2O
same,leak point pressure increase,[1]; 0.3 mg/kg,17.0 ± 1.8 cmH2O
same,leak point pressure after drug administration,[1]; 1 mg/kg,78.7 ± 5.7 cmH2O
same,leak point pressure increase,[1]; 1 mg/kg,20.4 ± 4.0 cmH2O
same,leak point pressure after drug administration,[1]; 3 mg/kg,78.7 ± 4.7 cmH2O
same,leak point pressure increase,[1]; 3 mg/kg,26.0 ± 3.5 cmH2O
same,leak point pressure before drug administration,[1]; dose group 0.03 mg/kg,66.6 ± 5.1 cmH2O
same,leak point pressure before drug administration,[1]; dose group 0.1 mg/kg,64.2 ± 1.3 cmH2O
same,leak point pressure before drug administration,[1]; dose group 0.3 mg/kg,52.9 ± 3.6 cmH2O
same,leak point pressure before drug administration,[1]; dose group 1 mg/kg,58.4 ± 2.3 cmH2O
same,leak point pressure before drug administration,[1]; dose group 3 mg/kg,52.7 ± 1.4 cmH2O
same,effect on leak point pressure,[1]; intravenous administration,dose-dependently increased the leak point pressure
same,leak point pressure after drug administration,[2]; 0.03 mg/kg,43.0 ± 6.3 cmH2O
same,leak point pressure increase,[2]; 0.03 mg/kg,3.5 ± 3.1 cmH2O
same,leak point pressure after drug administration,[2]; 0.1 mg/kg,55.5 ± 1.8 cmH2O
same,leak point pressure increase,[2]; 0.1 mg/kg,11.1 ± 3.0 cmH2O
same,leak point pressure after drug administration,[2]; 0.3 mg/kg,55.9 ± 8.5 cmH2O
same,leak point pressure increase,[2]; 0.3 mg/kg,14.4 ± 3.9 cmH2O
same,leak point pressure after drug administration,[2]; 1 mg/kg,67.1 ± 5.2 cmH2O
same,leak point pressure increase,[2]; 1 mg/kg,24.0 ± 3.1 cmH2O
same,leak point pressure before drug administration,[2]; dose group 0.03 mg/kg,39.5 ± 4.3 cmH2O
same,leak point pressure before drug administration,[2]; dose group 0.1 mg/kg,44.4 ± 4.5 cmH2O
same,leak point pressure before drug administration,[2]; dose group 0.3 mg/kg,41.6 ± 6.0 cmH2O
same,leak point pressure before drug administration,[2]; dose group 1 mg/kg,43.1 ± 3.4 cmH2O
same,dose at which a significant effect on the leak point pressure was afforded,[2]; intravenous administration,not less than 0.1 mg/kg
same,effect on leak point pressure,[2]; intravenous administration,dose-dependently increased the leak point pressure
same,leak point pressure after drug administration,[3],57.6 ± 4.5 cmH2O
same,leak point pressure increase,[3],13.7 ± 2.2 cmH2O
same,leak point pressure before drug administration,[3]; baseline,43.9 ± 4.3 cmH2O
same,leak point pressure after drug administration,[4],77.6 ± 3.8 cmH2O
same,leak point pressure increase,[4],15.0 ± 1.1 cmH2O
same,leak point pressure before drug administration,[4]; baseline,62.6 ± 4.2 cmH2O
"C[C@]12CCC(=O)C[C@@H]1CC[C@@H]1[C@@H]2CC[C@]2(C)[C@@H](O)CC[C@@H]12 [DHT, dihydrotestosterone]",leak point pressure after drug administration,[5]; 0.3 mg/kg,35.5 ± 3.9 cmH2O
same,leak point pressure after drug administration,[5]; 1 mg/kg,41.1 ± 3.4 cmH2O
same,leak point pressure after drug administration,[5]; 3 mg/kg,36.9 ± 2.1 cmH2O
same,leak point pressure before drug administration,[5]; dose group 0.3 mg/kg,32.1 ± 3.9 cmH2O
same,leak point pressure before drug administration,[5]; dose group 1 mg/kg,35.7 ± 3.1 cmH2O
same,leak point pressure before drug administration,[5]; dose group 3 mg/kg,30.5 ± 2.2 cmH2O
same,effect on leak point pressure,[5]; intravesical pressure-clamp method,increased the leak point pressure
COc1ccc(OC)c(C(O)CNC(=O)CN)c1 (centres unmarked) [midodrine],leak point pressure after drug administration,[6]; 3 mg/kg,39.5 ± 7.5 cmH2O
same,leak point pressure increase,[6]; 3 mg/kg,3.3 ± 4.0 cmH2O
same,leak point pressure after drug administration,[6]; 10 mg/kg,45.1 ± 3.8 cmH2O
same,leak point pressure increase,[6]; 10 mg/kg,6.1 ± 1.4 cmH2O
same,leak point pressure before drug administration,[6]; dose group 3 mg/kg,36.2 ± 4.8 cmH2O
same,leak point pressure before drug administration,[6]; dose group 10 mg/kg,38.9 ± 4.5 cmH2O
same,"effect on leak point pressure, comparison before and after administration",[6]; intravenously administered,significant increase in the leak point pressure
